# Results: patent US10421779B2, “Carbazole compound having anti-virus activity” (priority 2016, dated 2019)
# Legend:
# Assay type in all cases: cell-based
# [1] = system: hepatitis C virus mutant L31V of the NS5A region; experiment: Efficacy on resistant mutant L31V; conditions: read-out: EC50 L31V
# Excerpt: (§1) As a mutant resistant to hepatitis C virus, L31V and Y93H of the NS5A region, and double mutants thereof were applied.
# [2] = system: hepatitis C virus mutant Y93H of the NS5A region; experiment: Efficacy on resistant mutant Y93H; conditions: read-out: EC50 Y93H
# Excerpt: as §1
# [3] = system: hepatitis C virus double mutant L31V and Y93H of the NS5A region; experiment: Efficacy on resistant double mutant (L31V and Y93H); conditions: read-out: EC50 Double mutant
# Excerpt: as §1
# [4] = system: HCV genotype 1 b (HCV replicon system); experiment: HCV replicon system genotype 1b, Renilla luciferase activity; conditions: Hepatitis C virus, 72 h; HCV genotype 1b replicon, Rluc, 3 days; read-out: Replicon EC50 1b type
# How it was run: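 Genotype 1b replicon carrying Renilla luciferase and 1b non-structural genes, treated with compound at various concentrations. Luciferase activity read after 3 days relative to control to derive EC50.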
# [5] = system: HCV genotype 2a (HCV cell culture system, HCVcc); experiment: HCVcc genotype 2a JFH1 (JFH 5a-Rluc) virus in Huh7.5.1 cells, luciferase assay; conditions: Hepatitis C virus, Huh-7.5.1, 72 h, HCV genotype 2a JFH 5a-Rluc, 3 days, read-out: Replicon EC50 2a type
# Description: (§2) From human liver cells (Huh7.5.1 cell) infected by hepatitis C virus, the anti-virus effects by the compound of the present invention were measured. From HCV genotype 1 b (HCV replicon system), genotype 2a (HCV cell culture system, HCVcc), and genotype 3a, the EC50 values were measured.
# In order to measure the EC50 value from HCV genotype 2a, a luciferase assay was used. A JFH1 clone (JFH 5a-Rluc) virus constructed to have a Renilla luciferase enzyme (Rluc) gene in NS5A protein was infected with Huh7.5.1 cell being a host cell, and then the EC50 value was measured by taking cells grown for 3 days by treating the experimental compound under various concentration conditions, and analyzing the activity degree of the luciferase.
# [6] = system: HCV genotype 3a (HCV replicon system); experiment: HCV replicon system genotype 3a, firefly luciferase activity; conditions: Hepatitis C virus, 72 h; HCV genotype 3a replicon, Fluc, 3 days; read-out: Replicon EC50 3a type
# Description: as §2
# In order to measure the EC50 value from genotype 3a, the value was measured through the luciferase activity. A HCV replicon system having firefly luciferase (Fluc) genes and genotype 3a non-structure genes was used. The HCV replicon system having the genes as described above was used to treat the experimental compound under various concentration conditions, and then 3 days later, the EC50 value was measured by comparing the luciferase activity with that of the control.
SMILES,EC50 [1] [nM],EC50 [2] [nM],EC50 [3] [nM],EC50 [4] [nM],EC50 [5] [nM],EC50 [6] [nM]
"COC(=O)N[C@H](C(=O)N1CCC[C@H]1c1nc(-c2ccc(-c3ccc(-c4c[nH]c([C@@H]5CCCN5C(=O)[C@@H](NC(=O)OC)C(C)C)n4)cc3)cc2)c[nH]1)C(C)C [BMS-790052, reference compound]",0.1 to 1,1 to 10,> 1000,–,–,–
"COC(=O)N[C@@H](C(=O)N1CCC[C@H]1C(=O)Nc1ccc2c3ccc(NC(=O)[C@@H]4CCCN4C(=O)[C@H](NC(=O)OC)c4ccccc4)cc3n(Cc3ccccc3)c2c1)c1ccccc1 [Example 13, dimethyl ((1R,1′R)-((2S,2′S)-(((9-benzyl-9H-carbazole-2,7-diyl)bis(azanediyl))bis(carbonyl))bis(pyrrolidine-2,1-diyl))bis(2-oxo-1-phenylethane-2,1-diyl))dicarbamate]",0.1 to 1,100 to 1000,> 1000,0.0246,–,–
"COC(=O)N[C@@H](C(=O)N1CCC[C@H]1C(=O)Nc1ccc2c3ccc(NC(=O)[C@@H]4CCCN4C(=O)[C@H](NC(=O)OC)c4ccccc4)cc3n(Cc3ccc(OC)cc3)c2c1)c1ccccc1 [Example 14, dimethyl ((1R,1′R)-((2S,2′S)-(((9-(4-methoxybenzyl)-9H-carbazole-2,7-diyl)bis(azanediyl))bis(carbonyl))bis(pyrrolidine-2,1-diyl))bis(2-oxo-1-phenylethane-2,1-diyl))dicarbamate]",0.1 to 1,100 to 1000,> 1000,0.0203,–,–
"COC(=O)N[C@@H](C(=O)N1CCC[C@H]1C(=O)Nc1ccc2c3ccc(NC(=O)[C@@H]4CCCN4C(=O)[C@H](NC(=O)OC)c4ccccc4)cc3n(C(C)c3ccccc3)c2c1)c1ccccc1 (stereo partly drawn) [Example 15, dimethyl ((1R,1′R)-((2S,2′S)-(((9-(1-phenylethyl)-9H-carbazole-2,7-diyl)bis(azanediyl))bis(carbonyl))bis(pyrrolidine-2,1-diyl))bis(2-oxo-1-phenylethane-2,1-diyl))dicarbamate]",< 0.1,10 to 100,> 1000,0.0157,–,–
"COC(=O)N[C@@H](C(=O)N1CCC[C@H]1C(=O)Nc1ccc2c3ccc(NC(=O)[C@@H]4CCCN4C(=O)[C@H](NC(=O)OC)c4ccccc4)cc3n(CC3CC3)c2c1)c1ccccc1 [Example 16, dimethyl ((1R,1′R)-((2S,2′S)-(((9-(cyclopropylmethyl)-9H-carbazole-2,7-diyl)bis(azanediyl))bis(carbonyl))bis(pyrrolidine-2,1-diyl))bis(2-oxo-1-phenylethane-2,1-diyl))dicarbamate]",1 to 10,10 to 100,> 1000,0.0182,–,–
"COC(=O)N[C@@H](C(=O)N1CCC[C@H]1C(=O)Nc1ccc2c3ccc(NC(=O)[C@@H]4CCCN4C(=O)[C@H](NC(=O)OC)c4ccccc4)cc3n(Cc3ccncc3)c2c1)c1ccccc1 [Example 19, dimethyl ((1R,1′R)-((2S,2′S)-(((9-(pyridine-4-ylmethyl)-9H-carbazole-2,7-diyl)bis(azanediyl))bis(carbonyl))bis(pyrrolidine-2,1-diyl))bis(2-oxo-1-phenylethane-2,1-diyl))dicarbamate]",1 to 10,> 1000,> 1000,0.243,–,–
"COC(=O)N[C@@H](C(=O)N1CCC[C@H]1C(=O)Nc1ccc2c3ccc(NC(=O)[C@@H]4CCCN4C(=O)[C@H](NC(=O)OC)c4ccccc4)cc3n(Cc3cccc(C)n3)c2c1)c1ccccc1 [Example 20, dimethyl ((1R,1′R)-((2S,2′S)-(((9-((6-methylpyridine-2-yl)methyl)-9H-carbazole-2,7-diyl)bis(azanediyl))bis(carbonyl))bis(pyrrolidine-2,1-diyl))bis(2-oxo-1-phenylethane-2,1-diyl))dicarbamate]",10 to 100,> 1000,> 1000,0.222,–,–
"COCCn1c2cc(NC(=O)[C@@H]3CCCN3C(=O)[C@H](NC(=O)OC)c3ccccc3)ccc2c2ccc(NC(=O)[C@@H]3CCCN3C(=O)[C@H](NC(=O)OC)c3ccccc3)cc21 [Example 21, dimethyl ((1R,1′R)-((2S,2′S)-(((9-(2-methoxyethyl)-9H-carbazole-2,7-diyl)bis(azanediyl))bis(carbonyl))bis(pyrrolidine-2,1-diyl))bis(2-oxo-1-phenylethane-2,1-diyl))dicarbamate]",10 to 100,100 to 1000,> 1000,0.111,–,–
"CCCCCCOc1ccc(Cn2c3cc(NC(=O)[C@@H]4CCCN4C(=O)[C@H](NC(=O)OC)c4ccccc4)ccc3c3ccc(NC(=O)[C@@H]4CCCN4C(=O)[C@H](NC(=O)OC)c4ccccc4)cc32)cc1 [Example 31, dimethyl ((1R,1′R)-((2S,2′S)-(((9-(4-(hexyloxy)benzyl)-9H-carbonyl-2,7-diyl)bis(azanediyl))bis(carbonyl))bis(pyrrolidine-2,1-diyl))bis(2-oxo-1-phenylethane-2,1-diyl))dicarbamate]",< 0.1,10 to 100,–,~0.01,1 to 10,~0.01
"COC(=O)N[C@@H](C(=O)N1CCC[C@H]1C(=O)Nc1ccc2c3ccc(NC(=O)[C@@H]4CCCN4C(=O)[C@H](NC(=O)OC)c4ccccc4)cc3n(CCCCCCCCCCN3CCOCC3)c2c1)c1ccccc1 [Example 34, dimethyl ((1R,1′R)-((2S,2′S)-(((9-(10-morpholinodecyl)-9H-carbazole-2,7-diyl)bis(azanediyl))bis(carbonyl))bis(pyrrolidine-2,1-diyl))bis(2-oxo-1-phenylethane-2,1-diyl))carbamate]",< 0.1,100 to 1000,–,0.01 to 0.1,1 to 10,0.01 to 0.1
"COCCOc1cccc(Cn2c3cc(NC(=O)[C@@H]4CCCN4C(=O)[C@H](NC(=O)OC)c4ccccc4)ccc3c3ccc(NC(=O)[C@@H]4CCCN4C(=O)[C@H](NC(=O)OC)c4ccccc4)cc32)c1 [Example 41, dimethyl ((1R,1′R)-((2S,2′S)-(((9-(3-(2-methoxyethoxy)benzyl)-9H-carbazole-2,7-diyl)bis(azanediyl))bis(carbonyl))bis(pyrrolidine-2,1-diyl))bis(2-oxo-1-phenylethane-2,1-diyl))dicarbamate]",0.1 to 1,> 1000,–,0.00965,–,0.0419
"CCCCCCCCCC(c1ccccc1)n1c2cc(NC(=O)[C@@H]3CCCN3C(=O)[C@H](NC(=O)OC)c3ccccc3)ccc2c2ccc(NC(=O)[C@@H]3CCCN3C(=O)[C@H](NC(=O)OC)c3ccccc3)cc21 (stereo partly drawn) [Example 42, dimethyl ((1R,1′R)-((2S,2′S)-(((9-(1-phenyldecyl)-9H-carbazole-2,7-diyl)bis(azanediyl))bis(carbonyl))bis(pyrrolidine-2,1-diyl))bis(2-oxo-1-phenylethane-2,1-diyl))dicarbamate]",0.1 to 1,100 to 1000,–,0.00124,10 to 100,0.0329
